Measurements from patent US12077522B2, “Heterocyclic compound and application thereof” (Takeda Pharmaceutical Company Limited, priority 2018, dated 2024).

Target: T1, human orexin type 2 receptor (Homo sapiens, UniProt O43614)
T1 construct: expressed in transfected cells
T1 sequence (O43614 1-444): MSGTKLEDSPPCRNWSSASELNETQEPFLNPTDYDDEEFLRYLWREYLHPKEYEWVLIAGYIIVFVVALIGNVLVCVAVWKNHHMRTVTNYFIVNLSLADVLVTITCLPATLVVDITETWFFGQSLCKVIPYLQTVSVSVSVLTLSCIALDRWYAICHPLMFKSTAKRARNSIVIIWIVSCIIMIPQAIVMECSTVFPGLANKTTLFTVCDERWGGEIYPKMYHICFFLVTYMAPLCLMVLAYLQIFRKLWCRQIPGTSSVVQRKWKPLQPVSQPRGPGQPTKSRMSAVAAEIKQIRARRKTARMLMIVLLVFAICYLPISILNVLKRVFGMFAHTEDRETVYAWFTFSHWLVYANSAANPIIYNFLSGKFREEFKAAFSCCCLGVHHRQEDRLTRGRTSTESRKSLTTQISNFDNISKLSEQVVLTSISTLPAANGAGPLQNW
Assay: Measurement of orexin type 2 receptor agonist activity (calcium fluorescence, Fluo-4 AM, FDSS)
Assay type: cell-based
Settings: compound at 3 μM; CHO cells forcibly expressing human OX2 receptor; DMSO = 0%, orexin A (human) 10 nM = 100%
From the text: To obtain a cell clone stably expressing human orexin type 2 receptor, human orexin type 2 receptor cDNA was inserted into pcDNA3.1(+) plasmid vector (Invitrogen), and a plasmid DNA for expression of human orexin type 2 receptor (pcDNA3.1(+)/hOX2R) was cloned. The plasmid DNA was introduced into CHO-dhfr cell by an electroporation method, and human orexin type 2 receptor expressing clone cells were obtained by limiting dilution method by using G418 drug resistance as a selection marker.
CHO cells forcibly expressing human OX2 receptor were seeded in each well of 384 well black transparent bottom plate (BD Falcon) at 7,500 cells/well, and cultured for one day in a 5% CO2 incubator at 37° C. After removal of the medium in the cell plate, assay buffer A containing a calcium indicator (HBSS (Thermo Fisher Scientific), 20 mM HEPES (Thermo Fisher Scientific), 0.1% BSA (Wako Pure Chemical Industries, Ltd. or Sigma-Aldrich), 2.5 μg/mL Fluo-4 AM (DOJINDO Chemical), 0.08% Pluronic F127 (DOJINDO Chemical), 1.25 mM probenecid (DOJINDO Chemical)) was added at 30 μL/well. The plate was stood for 30 min in a 5% CO2 incubator at 37° C., and further stood at room temperature for 30 min. A test compound prepared by diluting with assay buffer B (HBSS, 20 mM HEPES, 0.1% BSA) was added at […], and the fluorescence value was measured by FDSSpCELL (Hamamatsu Photonics K.K.) every one sec for 1 min, and thereafter every two sec for 1 min 40 sec. The activity (%) of the test compound was calculated assuming that variation in the fluorescence value when DMSO was added instead of the test compound was 0%, and variation in the fluorescence value when orexin A (human) (PEPTIDE INSTITUTE, INC.) was added at the final concentration of 10 nM was 100%. The activity of each compound at the concentration of 3 μM was shown below.

SMILES	OX2R agonist activity (3 μ M, %) [%]
O=C(NC1CCCN(C(=O)N2CCC2)C1COC1CCN(c2ncccn2)CC1)[C@@H]1CCCO1 (stereo in doubt) [Example 7, (2S)-N-[cis-1-(azetidine-1-carbonyl)-2-({[1-(pyrimidin-2-yl)piperidin-4-yl]oxy}methyl)piperidin-3-yl]oxolane-2-carboxamide]	67
O=C(NC1CCCN(C(=O)N2CCC2)C1COC1CCN(c2ncc(F)cn2)CC1)[C@@H]1CCCO1 (stereo in doubt) [Example 8, (2S)-N-[cis-1-(azetidine-1-carbonyl)-2-({[1-(5-fluoropyrimidin-2-yl)piperidin-4-yl]oxy}methyl)piperidin-3-yl]oxolane-2-carboxamide]	83
O=C(NC1CCCN(C(=O)C2CCC2)C1COC1CCN(c2ncccn2)CC1)[C@@H]1CCCO1 (stereo in doubt) [Example 11, (2S)-N-[cis-1-(cyclobutanecarbonyl)-2-({[1-(pyrimidin-2-yl)piperidin-4-yl]oxy}methyl)piperidin-3-yl]oxolane-2-carboxamide]	94
O=C(NC1CCCN(C(=O)C2CCC2)C1COC1CCN(c2ncc(F)cn2)CC1)[C@@H]1CCCO1 (stereo in doubt) [Example 12, (2S)-N-[cis-1-(cyclobutanecarbonyl)-2-({[1-(5-fluoropyrimidin-2-yl)piperidin-4-yl]oxy}methyl)piperidin-3-yl]oxolane-2-carboxamide]	99
O=C(NC1CCCN(C(=O)C2(O)CCC2)C1COC1CCN(c2ncccn2)CC1)[C@@H]1CCCO1 (stereo in doubt) [Example 13, (2S)-N-[cis-1-(1-hydroxycyclobutane-1-carbonyl)-2-({[1-(pyrimidin-2-yl)piperidin-4-yl]oxy}methyl)piperidin-3-yl]oxolane-2-carboxamide]	81
O=C(NC1CCCN(C(=O)C2(O)CCC2)C1COC1CCN(c2ncc(F)cn2)CC1)[C@@H]1CCCO1 (stereo in doubt) [Example 14, (2S)-N-[cis-2-({[1-(5-fluoropyrimidin-2-yl)piperidin-4-yl]oxy}methyl)-1-(1-hydroxycyclobutane-1-carbonyl)piperidin-3-yl]oxolane-2-carboxamide]	92
CC(C)OC(=O)N1CCCC(NC(=O)[C@@H]2CCCO2)C1COC1CCN(c2ncccn2)CC1 (stereo in doubt) [Example 15, propan-2-yl cis-3-{[(2S)-oxolane-2-carbonyl]amino}-2-({[1-(pyrimidin-2-yl)piperidin-4-yl]oxy}methyl)piperidine-1-carboxylate]	96
CC(C)OC(=O)N1CCCC(NC(=O)[C@@H]2CCCO2)C1COC1CCN(c2ncc(F)cn2)CC1 (stereo in doubt) [Example 16, propan-2-yl cis-2-({[1-(5-fluoropyrimidin-2-yl)piperidin-4-yl]oxy}methyl)-3-{[(2S)-oxolane-2-carbonyl]amino}piperidine-1-carboxylate]	95
CN(C)C(=O)C(=O)NC1CCCN(C(=O)C2CCC2)C1COC1CCN(c2ncc(F)cn2)CC1 (stereo not drawn) [Example 4, N^~2^~- [cis-1-(cyclobutanecarbonyl)-2-({[1-(5-fluoropyrimidin-2-yl)piperidin-4-yl]oxy}methyl)piperidin-3-yl]-N^~1^~,N^~1^~-dimethylethanediamide]	84
CCNC(=O)N1CCCC(NC(=O)C(=O)N(C)C)C1CO[C@H]1CC[C@@H](c2ccccc2)CC1 (stereo partly drawn) [Example 18, N^~2^~-[cis-1-(ethylcarbamoyl)-2-({[cis-4-phenylcyclohexyl]oxy}methyl)piperidin-3-yl]-N^~1^~,N^~1^~- dimethylethanediamide]	98
CCNC(=O)N1CCCC(NC(=O)C(=O)N(C)C)C1CO[C@H]1CC[C@@H](c2ccc(F)cc2)CC1 (stereo partly drawn) [Example 19, N^~2^~-[cis-1-(ethylcarbamoyl)-2-({[cis-4-(4-fluorophenyl)cyclohexyl]oxy}methyl)piperidin-3-yl]-N^~1^~,N^~1^~- dimethylethanediamide]	75
CCNC(=O)N1CCCC(NC(=O)C(=O)N(C)C)C1CO[C@H]1CC[C@@H](c2cccc(F)c2)CC1 (stereo partly drawn) [Example 21, N^~2^~-[cis-1-(ethylcarbamoyl)-2-({[cis-4-(3-fluorophenyl)cyclohexyl]oxy}methyl)piperidin-3-yl]-N^~1^~,N^~1^~- dimethylethanediamide]	102
CCNC(=O)N1CCCC(NC(=O)C(=O)N(C)C)C1CO[C@H]1CC[C@@H](c2ccccc2F)CC1 (stereo partly drawn) [Example 22, N^~2^~-[cis-1-(ethylcarbamoyl)-2-({[cis-4-(2-fluorophenyl)cyclohexyl]oxy}methyl)piperidin-3-yl]-N^~1^~,N^~1^~- dimethylethanediamide]	99
